From patent US20190142738A1, “TRANSDERMAL FORMULATIONS FOR DELIVERY OF CELECOXIB AND ITS USE IN THE TREATMENT OF CELECOXIB-RESPONSIVE DISEASES AND CONDITIONS” (DELIVRA INC., priority 2016, published 2019)
Like-named read-outs stand apart in the source and are kept apart here.

Tests used:
Assay type in all cases: in vivo
[1] = Oral and transdermal celecoxib concentrations in canine sera and synovial fluid; conditions: dogs; for concentration at 7 days / concentration at 60 min: dog
Excerpt: A Latin Square design was used employing six aged dogs with radiographic evidence of bilateral shoulder osteoarthritis. The treatment cycle consisted of six days twice daily followed by a period of seven days devoid of treatment. Blood and synovial fluid samples (from both stifles and shoulders) were collected on the last (sixth) day of drug application and on the last (seventh) day of the washout period.
Test article: 3% celecoxib in exemplary transdermal base formulation 4; ˜0.5 g gel per shoulder (2) and stifle joint (2) twice daily (i.e. 60 mg celecoxib total twice daily).
Control article: Exemplary transdermal base formulation 5; ˜1 g gel per shoulder joint twice daily.
Positive control: 30 mg celecoxib in capsule PO twice daily.
Serum and Synovial Fluid Collection:
Whole blood and synovial fluid samples were collected from the dogs 60 mins post treatment on the […], and additional samples were collected after a 7 day washout. Baseline synovial fluid was collected from untreated canine subjects. Synovial fluid was collected under sedation (medetomidine, 0.01 mg/kg) and butorphenol (0.1 mg/kg, IV). The fluid was collected by arthrocentesis into the joint following surgical preparation of the area. Synovial fluid was collected from the stifle or shoulder joints.
Analytical Method Development and Quantification:
The method for quantification of celecoxib in serum, plasma and synovial fluid was completed by the National Research Council of Canada (NRC). The results were categorized and summarized for average and deviations for each treatment group and time period.
The objective of this study was to determine if the transdermal formulations of the application were capable of delivering celecoxib either into the systemic circulation and joint synovial fluid and compare transdermal versus oral routes of administration. A canine model was used over two time periods. The first time period consisting of a twice daily drug administration regimen for six days to assess concentrations predictive of chronic use. The second time period followed immediately after, wherein all animals were withdrawn of drug administration and tested after seven days to determine if celecoxib was completely metabolized.

[2] = tested on: sodium urate induced synovitis model in Beagle dogs; assay: Caliper measurement of patella/patellar tendon (knee cap) width, percent baseline measure of inflammation, sodium urate induced synovitis model
Procedure: Study Design: The study was a randomized, blinded, preclinical study using a controlled, parallel, matched-group design. Thirty-two subjects meeting the inclusion criteria were enrolled in the trial and allocated to 4 balanced groups; therefore one group received 2 treatments separated by a minimum of 14 days. Following induction of synovitis by sodium urate injections, effectiveness of transdermal formulations were evaluated using a pain questionnaire assessment and joint measurements at various time points. [table] On days 0, 2, 7 and 22, subjects who were schedules for synovitis induction were treated according to their assigned treatment condition. Test article administration occurred 30 minutes following synovitis induction, i.e. sodium urate injection. Transdermal treatment doses were measured in milligrams using an analytical scale and were then applied directly to the induce stifle. Transdermal treatments were rubbed into the dog's skin for a minimum of 1 minute. […] If IV administration of the propofol was not possible due to inaccessibility of the vein, the subjects were masked down using the isoflurane-oxygen mixture and the event was recorded on the anesthesia record. […] Each treatment group had the same number of dogs induced in the left […]) Caliper measurements: Within thirty minutes of synovitis induction and 4.5, 8.5, 24.5 and 30.5 hours following induction (±15 minutes), the width of the patella and the patellar tendon were measured in millimeters using […] 150 mm plastic gauge calipers which measured in increments of 1 mm. […] The cumulative pain scored and stifle measurements were analyzed using a repeated-measures analysis of variance (ANOVA) with the treatment group (7 factors( ) as between-subject measure and time-point (5 factors for pain and 4 factors for the inflammation measure) as a within-subject measure. Post-hoc Fisher's test was used to examine differences as appropriate. The Statistica 11 (Statsoft, Tulsa, Okla.) statistical software package was used with significance set to […].

[3] = tested on: sodium urate induced synovitis model in Beagle dogs; assay: Pain questionnaire assessment (cumulative pain score), sodium urate induced synovitis model
Procedure: Study Design: The study was a randomized, blinded, preclinical study using a controlled, parallel, matched-group design. Thirty-two subjects meeting the inclusion criteria were enrolled in the trial and allocated to 4 balanced groups; therefore one group received 2 treatments separated by a minimum of 14 days. Following induction of synovitis by sodium urate injections, effectiveness of transdermal formulations were evaluated using a pain questionnaire assessment and joint measurements at various time points. [table] On days 0, 2, 7 and 22, subjects who were schedules for synovitis induction were treated according to their assigned treatment condition. Test article administration occurred 30 minutes following synovitis induction, i.e. sodium urate injection. Transdermal treatment doses were measured in milligrams using an analytical scale and were then applied directly to the induce stifle. […] If IV administration of the propofol was not possible due to inaccessibility of the vein, the subjects were masked down using the isoflurane-oxygen mixture and the event was recorded on the anesthesia record. […] Specifically, the ability for each dog to walk, trot, gallop, rear, jump over a low obstacle, climb and descend stairs, jump down from a perch and general activity is evaluated in parallel to subjective evaluation of pain observed during each behavior. […]

[4] = Oral, 30 mg capsule PO twice daily (60 mg/day), Chronic administration (6 days)
[5] = Transdermal (formulation 4), Washout (7 days)
[6] = Transdermal, 3% celecoxib in formulation 4, 120 mg/day, Chronic administration (6 days)

concentration at 7 days ([1]; serum, 30 mg, Oral, Washout (7 days), read-out: Serum drug concentration of celecoxib): 0 ng/mL
concentration at 7 days ([1]; serum, topical, 60 mg, Transdermal (formulation 4), Washout (7 days), read-out: Serum drug concentration of celecoxib): 4 ng/mL
concentration at 60 min ([1]; serum, topical, 60 mg, Transdermal, 3% celecoxib in formulation 4, 120 mg/day, Chronic administration (6 days), read-out: Serum drug concentration of celecoxib): 221 ng/mL
concentration at 60 min ([1]; serum, Oral, 30 mg capsule PO twice daily (60 mg/day), Chronic administration (6 days), read-out: Serum drug concentration of celecoxib): 312 ng/mL
concentration at 7 days ([1]; synovial fluid, 30 mg, Oral, Washout (7 days), read-out: Synovial fluid drug concentration of celecoxib): 1 ng/mL
concentration at 7 days ([1]; synovial fluid, topical, 60 mg, Transdermal (formulation 4), Washout (7 days), read-out: Synovial fluid drug concentration of celecoxib): 17 ng/mL
concentration at 60 min ([1]; synovial fluid, topical, 60 mg, Transdermal, 3% celecoxib in formulation 4, 120 mg/day, Chronic administration (6 days), read-out: Synovial fluid drug concentration of celecoxib): 203 ng/mL
concentration at 60 min ([1]; synovial fluid, Oral, 30 mg capsule PO twice daily (60 mg/day), Chronic administration (6 days), read-out: Synovial fluid drug concentration of celecoxib): 76 ng/mL
Serum drug concentration of celecoxib [1, 4]: 312 (±214) ng/mL
Synovial fluid drug concentration of celecoxib [1, 4]: 76 (±57) ng/mL
Synovial fluid drug concentration of celecoxib ([1]; Oral, Washout (7 days)): 1 (±1) ng/mL
Serum drug concentration of celecoxib [1, 5]: 4 (±6) ng/mL
Synovial fluid drug concentration of celecoxib [1, 5]: 17 (±35) ng/mL
Serum drug concentration of celecoxib [1, 6]: 221 (±227) ng/mL
Synovial fluid drug concentration of celecoxib [1, 6]: 203 (±165) ng/mL
amount of drug the transdermal route requires to achieve the same circulating concentration as oral ([1]; chronic treatment, transdermal versus oral): twofold
reduction of circulating drug concentrations by one week washout ([1]; serum, oral or transdermal): > 95%
reduction of drug concentration by one week washout ([1]; synovial fluid, oral or transdermal): > 90%
SMILES: Cc1ccc(-c2cc(C(F)(F)F)nn2-c2ccc(S(N)(=O)=O)cc2)cc1 [celecoxib]
inflammation compared to Voltaren ([2]; 8 hours): significantly reduced inflammation
percent baseline measure of inflammation (knee cap measurement) in comparison to no treatment ([2]; 24 hours): significantly reduced
effects on inflammation compared to negative control ([2]; summary statement, no time point stated): no effects
cumulative pain score in comparison to no treatment ([3]; 4 hours after treatment): significantly reduced
cumulative pain score in comparison to no treatment ([3]; 8 hours after treatment): significantly reduced
